Experimental data: patent US4208414A, “Vinblastine in rheumatoid arthritis” (Eli Lilly and Company, priority 1979, dated 1980)
Counter-ions that a name gives are not always drawn.

Legend:
[1] = adjuvant-induced arthritis assay in rats; type: in vivo, female Wistar-Lewis rats; details: for Percent Inhibition Swelling, Injected Paw / Percent Inhibition Swelling, Uninjected Paw: day 16; for Percent Inhibition of Swelling, Injected Paw / Percent Inhibition of Swelling, Uninjected Paw: Table 2; for Inhibition of Swelling, Mean Difference, Injected Paw / Inhibition of Swelling, Mean Difference, Uninjected Paw: Table 3; for inhibiting induced arthritis, drug alone: at the dose levels used in combination
[2] = weight loss / deaths as a measure of toxicity in the adjuvant arthritis experiments
Experimental: Similar experiments were carried out with vinblastine-fenoprofen combinations and a vinblastine-indomethacin combination, again using adjuvant arthritis as a model. In this first determination, vinblastine was, as before, given on the 10th day, but fenoprofen, as the calcium salt, was given both from day 0 through day 15 and from day 10 through day 15. Controls utilizing each drug alone were employed as well as a saline control. […] In the vinblastine-indomethacin experiment, vinblastine was given on day 11 and indomethacin daily from days 11 to day 16.

[3] = intravenous; pleural cavity; cited from earlier work
[4] = pigeons or chickens, intertarsal joint; cited from earlier work
[5] = dogs pretreated with vinblastine; cited from earlier work
[6] = mice; cited from earlier work
twine granuloma assay = type: in vivo; details: female rats
Text: Vinblastine is also active in other assays designed to detect anti-arthritic activity as, for example, the twine granuloma assay in female rats.

[7] = antiarthritic activity relative to vinblastine, parenteral; type: in vivo; details: parenteral administration
[8] = Table 1 Section A, 3 mg/kg, given on 10th day
[9] = Table 1 Section A, 6 mg/kg, given on 10th day
[10] = Table 1 Section A, 9 mg/kg, given on 10th day
[11] = Table 1 Section A, 9 mg/kg, given on 10th day, * decrease from previous value
[12] = Table 1 Section A, 12 mg/kg, given on 10th day, * decrease from previous value
[13] = Table 1 Section B, vinblastine sulfate 6 mg/kg, 10th day
[14] = vinblastine sulfate 3 mg/kg, day 10, p = 1
[15] = Table 2, vinblastine sulfate 3 mg/kg day 10
[16] = Table 1 Section B, fenoprofen 5 mg/kg, days 10-15

CC[C@]1(O)C[C@@H]2CN(CCc3c([nH]c4ccccc34)[C@@](C(=O)OC)(c3cc4c(cc3OC)N(C)[C@H]3[C@@](O)(C(=O)OC)[C@H](OC(C)=O)[C@]5(CC)C=CCN6CC[C@]43[C@@H]65)C2)C1 [Vinblastine sulfate]
Average Increase in Swelling, Injected Paw, Day 0-10 [1, 8]: 0.554 | Average Increase in Swelling, Injected Paw, Day 10-16 [1, 8]: 0.722 | Average Increase in Swelling, Uninjected Paw, Day 0-10 [1, 8]: 0.024 | Average Increase in Swelling, Uninjected Paw, Day 10-16 [1, 8]: 0.574 | Percent Inhibition Swelling, Injected Paw ([1]; Table 1 Section A, 3 mg/kg, given on 10th day, p = 0.097): 38.55% | Percent Inhibition Swelling, Uninjected Paw ([1]; Table 1 Section A, 3 mg/kg, given on 10th day, p = 0.987): 0% | Average Increase in Swelling, Injected Paw, Day 0-10 [1, 9]: 0.498 | Average Increase in Swelling, Injected Paw, Day 10-16 [1, 9]: 0.188 | Average Increase in Swelling, Uninjected Paw, Day 0-10 [1, 9]: 0.038 | Percent Inhibition Swelling, Injected Paw ([1]; Table 1 Section A, 6 mg/kg, given on 10th day, p = 0.001): 84.00% | Percent Inhibition Swelling, Uninjected Paw ([1]; Table 1 Section A, 6 mg/kg, given on 10th day, p = 0.077): 74.39% | Average Increase in Swelling, Injected Paw, Day 0-10 [1, 10]: 0.492 | Average Increase in Swelling, Uninjected Paw, Day 0-10 [1, 10]: 0.230 | Average Increase in Swelling, Injected Paw, Day 10-16 [1, 11]: -0.096 | Average Increase in Swelling, Uninjected Paw, Day 10-16 [1, 11]: -0.232 | Percent Inhibition Swelling, Injected Paw ([1]; Table 1 Section A, 9 mg/kg, given on 10th day, p = 0.000): 100.0% | Percent Inhibition Swelling, Uninjected Paw ([1]; Table 1 Section A, 9 mg/kg, given on 10th day, p = 0.004): 100.00% | Average Increase in Swelling, Injected Paw, Day 0-10 ([1]; Table 1 Section A, 12 mg/kg, given on 10th day): 0.698 | Average Increase in Swelling, Injected Paw, Day 10-16 [1, 12]: -0.108 | Average Increase in Swelling, Uninjected Paw, Day 0-10 [1, 12]: -0.102 | Average Increase in Swelling, Uninjected Paw, Day 10-16 [1, 12]: -0.048 | Percent Inhibition Swelling, Injected Paw ([1]; Table 1 Section A, 12 mg/kg, given on 10th day, p = 0.000): 100.00% | Percent Inhibition Swelling, Uninjected Paw ([1]; Table 1 Section A, 12 mg/kg, given on 10th day, p = 0.027): 100.00% | Average Increase in Swelling, Injected Paw, Day 0-10 [1, 13]: 0.498 | Average Increase in Swelling, Injected Paw, Day 10-16 [1, 13]: 0.188 | Average Increase in Swelling, Uninjected Paw, Day 0-10 [1, 13]: 0.030 | Percent Inhibition Swelling, Injected Paw ([1]; Table 1 Section B, vinblastine sulfate 6 mg/kg, 10th day, p = 0.001): 84.00% | Percent Inhibition Swelling, Uninjected Paw ([1]; Table 1 Section B, vinblastine sulfate 6 mg/kg, 10th day, p = 0.077): 74.39% | Percent Inhibition of Swelling, Injected Paw ([1]; vinblastine sulfate 3 mg/kg day 10, p = 0.724): 8.22% | Percent Inhibition of Swelling, Uninjected Paw ([1]; vinblastine sulfate 3 mg/kg day 10, p = 0.764): 12.0% | Inhibition of Swelling, Mean Difference, Injected Paw [1, 14]: 1.00 | Inhibition of Swelling, Mean Difference, Uninjected Paw [1, 14]: 0.41 | inhibiting induced arthritis, drug alone [1]: neither drug alone is effective | Wt. Loss, Day 0-16 [2, 15]: -22.3 grams | Wt. Loss, Day 10-16 [2, 15]: -22.6 grams | Wt. Loss, Day 10-17 ([2]; Table 3, vinblastine sulfate 3 mg/kg, day 10): 28.9 grams

CC[C@]1(O)C[C@@H]2CN(CCc3c([nH]c4ccccc34)[C@@](C(=O)OC)(c3cc4c(cc3OC)N(C)[C@H]3[C@@](O)(C(=O)OC)[C@H](OC(C)=O)[C@]5(CC)C=CCN6CC[C@]43[C@@H]65)C2)C1 [Vinblastine]
effect on inflammation [3]: may have a suppressive effect | inhibition of the arthritic response [4]: no inhibition of the arthritic response | activity in the adjuvant arthritis assay ([1]; summary statement): active in the adjuvant arthritis assay | inflammatory response [5]: almost completely abolished | leukocyte depletion [5]: profound leukocyte depletion | significant phagocyte accumulation [5]: prevented | depression of paw swelling [6]: significant depression of paw swelling | activity in twine granuloma assay (twine granuloma assay): active

CC(C(=O)O)c1cccc(Oc2ccccc2)c1 (racemic) [Fenoprofen (Ca salt), dl-α-methyl-3-phenoxybenzeneacetic acid]
Average Increase in Swelling, Injected Paw, Day 0-10 [1, 16]: 0.502 | Average Increase in Swelling, Injected Paw, Day 10-16 [1, 16]: 0.692 | Average Increase in Swelling, Uninjected Paw, Day 0-10 [1, 16]: 0.188 | Average Increase in Swelling, Uninjected Paw, Day 10-16 [1, 16]: 0.274 | Percent Inhibition Swelling, Injected Paw ([1]; Table 1 Section B, fenoprofen 5 mg/kg, days 10-15, p = 0.074): 41.11% | Percent Inhibition Swelling, Uninjected Paw ([1]; Table 1 Section B, fenoprofen 5 mg/kg, days 10-15, p = 0.282): 51.93% | Percent Inhibition of Swelling, Injected Paw ([1]; fenoprofen Ca salt 2.5 mg/kg days 0-15, p = 0.196): 34.9% | Percent Inhibition of Swelling, Uninjected Paw ([1]; fenoprofen Ca salt 2.5 mg/kg days 0-15, p = 0.645): 17.4% | Percent Inhibition of Swelling, Uninjected Paw ([1]; fenoprofen Ca salt 5 mg/kg days 10-15, p = 0.385): 27.2% | Percent Inhibition of Swelling, Injected Paw ([1]; fenoprofen Ca salt 5 mg/kg days 10-15, p = 0.58): 40.3% | inhibiting induced arthritis, drug alone [1]: neither drug alone is effective | death ([2]; Table 2 footnote, 2.5 mg/kg days 0-15, at day 16): one death

CC[C@]1(O)C[C@H]2CN(CCc3c([nH]c4ccccc34)[C@@](C(=O)OC)(c3cc4c(cc3OC)N(C=O)[C@H]3[C@@](O)(C(=O)OC)[C@H](OC(C)=O)[C@]5(CC)C=CCN6CC[C@]43[C@@H]65)C2)C1 [vincristine]
inhibition of the arthritic response [4]: no inhibition of the arthritic response | antiarthritic activity relative to VLB [7]: about 10 times more active | depression of paw swelling [6]: significant depression of paw swelling

COc1ccc2c(c1)c(CC(=O)O)c(C)n2C(=O)c1ccc(Cl)cc1 [Indomethacin]
Inhibition of Swelling, Mean Difference, Injected Paw ([1]; indomethacin 0.25 mg/kg, p = 0.11): 0.59 | Inhibition of Swelling, Mean Difference, Uninjected Paw ([1]; indomethacin 0.25 mg/kg, p = 1): 0.56 | inhibiting induced arthritis, drug alone [1]: neither drug alone is effective
